Results from patent US20230330093A1, “APPLICATION OF NITROGEN-CONTAINING SATURATED HETEROCYCLIC COMPOUND” (SHANGHAI PHARMACEUTICALS HOLDING CO., LTD., priority 2020, published 2023).

Test system: rhesus monkeys with spontaneous chronic kidney disease
Test: Safety tolerance study (adverse events, liver and renal function, food intake, body weight, hematology), 8-week administration
Format: in vivo, Macaca mulatta (Rhesus Macaque)
Settings: 1, 2, 5 mg/kg qd groups, 8-week administration period
Excerpt: Glucose and lipid metabolism and liver function: FPG, FRA, LDL-c, HDL-c, TG, TC, NT-proBNP, ALT, AST, TBIL, etc., twice before administration, once at weeks 4 and 8 respectively after administration;
Other biochemical indicators and hematology testing, once each before and after administration;
Body weight: once before administration, once a week during the administration period;
Hematology testing equipment: Siemens ADVIA 2120i Hematology Systems.
Number of observations: Observation was performed once a day.
Observation method: observation in cage.
Observation content: injection site, skin, hair, eyes, ears, nose, oral cavity, chest, abdomen, urogenital, limbs and other parts, as well as breathing, exercise, urinary, defecation and behavior changes.
Feeding method: Food was supplied once at 8:009:00 in the morning, 10:00 in the morning, 2:00 in the afternoon, and 4:00 in the afternoon, respectively, to ensure that there was food in the food box and animals ate freely. The remaining feed was removed at 07:40-8:00 in the next day.
Feeding amount: about 250-500 g/animal/day. In the experiment, it was ensured that there was feed in the food box for 24 hours, and the animals can eat freely.
Method for measuring food intake: The feed was estimated by a semi-quantitative method, and the amount of food given, the amount discarded and the remaining amount in food boxes were recorded every day. […]

COC(=O)NCCCn1nc([C@@H](C)N(C(=O)[C@H]2CNCCO2)C2CC2)c2ccc(C)nc21.O=C(O)C[C@H](O)C(=O)O [malate of compound of Formula I]
adverse events related to administration: no adverse events related to administration
changes in liver function, renal function, food intake, body weight, hematological indicators: no significant changes were observed
